Experimental data taken from US20250127702A1, “SUNSCREEN COMPOSITION WITH CRYSTALLINE ORGANIC SUNSCREEN FILTERS” (Edgewell Personal Care Brands, LLC, priority 2021, published 2025).

Assay: Amount of solvent needed to solubilize crystalline sunscreen filters
Assay type: physicochemical
Conditions: solvent: butyloctyl salicylate, capric/caprylic triglyceride
Description: This is unexpected since it theoretically takes at least 37 g of the solvent combination to solvate 3 g of bis-ethylhexyloxyphenol methoxyphenyl triazine (a filter that is harder to solubilize than even avobenzone). Similarly, the theoretical amount of octocrylene, homosalate, octisalate, octinoxate, ethylhexyl benzoate and C12-C15 alkyl benzoate to solvate 3 g of bis-ethylhexyloxyphenol methoxyphenyl triazine is 21 g. […] Additional benefits from relatively less solvent content, such as migration benefits, are discussed below.
This is unexpected since it theoretically takes at least 37 g of the solvent combination to solvate 3 g of bis-ethylhexyloxyphenol methoxyphenyl triazine (a filter that is harder to solubilize than even avobenzone) and 42.8 g of the solvent combination to solvate 15.5 g of the crystalline filter combination.

- theoretical amount of the solvent combination to solvate 3 g (diisobutyl adipate, diethylhexyl maleate, butyl maleate, butyl oleate, isopropyl myristate): at least 37 g
- theoretical amount of the solvent combination to solvate 3 g (dibutyl adipate and/or diisopropyl adipate): at least 37 g
SMILES: CCCCC(CC)COc1ccc(-c2nc(-c3ccc(OC)cc3)nc(-c3ccc(OCC(CC)CCCC)cc3O)n2)c(O)c1 (centres unmarked) [bis-ethylhexyloxyphenol methoxyphenyl triazine]
